The nature of data set [1]: Ugi macrocyclisation (intramolecular U-4C-3CR type): alpha,omega-amino acid + indole-3-carboxaldehyde (imine formation, MW 120 °C, 1 h), then tert-butyl isocyanide (MW 120 °C, 1 h); ring bond formed = amide between carboxyl C and amine N (via Mumm acyl transfer). The note with it: the molecule shown is the open-chain precursor, MeOH, 100.0 mM, 2.0 h.
The target in data set [2] is 15N-labeled MDM2 (N-terminal domain of human MDM2, residues 1-118) (Homo sapiens, UniProt Q00987). Put plainly: 1H,15N HSQC NMR titration of 15N-labeled MDM2. It is filed as binding. The conditions noted are these: 1H,15N HSQC titration, 7–9 ligand/protein ratios 0 to 5; 0.20–0.35 mM 15N MDM2; 50 mM phosphate pH 7.4, 150 mM NaCl, 5 mM DTT, 10% D2O; 300K; 50 mM ligand stock in DMSO; weighted mean of KD's of most perturbed residues in fast chemical exchange.
Protocol: Protein expression and purification
Fragment of the N-terminal domain of human MDM2 (residues 1-118) was cloned into the pET-20 (Novagen) and expressed in E. coli strain BL21-CodonPlus(DE3)-RIL as described previously.1 In brief, cells were cultured at 37 °C. Protein expression was induced with 1 mM IPTG at OD600 of 0.8 and cultured for additional 5 h at 37 °C. Cells were collected by centrifugation and lysed by sonication. Inclusion bodies were collected by centrifugation, washed with PBS containing 0.05% Triton-X100 and subsequently solubilized in 6 M guanidine hydrochloride in 100 mM Tris-HCl, pH 8.0, containing 1 mM EDTA and 10 mM β-mercaptoethanol. The protein was dialyzed against 4 M guanidine hydrochloride pH 3.5 supplemented with 10 mM β-mercaptoethanol. Following, the protein was refolded by dropwise addition into 10 mM Tris-HCl, pH 7.0, containing 1 mM EDTA and 10 mM β-mercaptoethanol and slow mixing overnight at 4 °C. Ammonium sulfate was added to the final concentration of 1.5 M and the refolded protein was recovered on Butyl Sepharose 4 Fast Flow (GE Healthcare). […]
Uniform 15N isotope labeling was achieved by expression of the protein in the M9 minimal media containing 15NH4Cl as the sole nitrogen source. […] Water suppression was carried out using the WATERGATE sequence.2 All the spectra were recorded at 300K using a Bruker Avance 600 MHz spectrometer with the Cryo-Platform.

For 17 compounds, ring closure, isolated yield and Kd results are on record in publication PMC6404402, “Design of indole- and MCR-based macrocycles as p53-MDM2 antagonists” (Beilstein Journal of Organic Chemistry, 2019).

Several values for one entry are separate records, joined by “and”; a condition that tells them apart may be missing. Identical values can stand only once.

15N-labeled MDM2 (N-terminal domain of human MDM2, residues 1-118), sequence (Q00987 1-118): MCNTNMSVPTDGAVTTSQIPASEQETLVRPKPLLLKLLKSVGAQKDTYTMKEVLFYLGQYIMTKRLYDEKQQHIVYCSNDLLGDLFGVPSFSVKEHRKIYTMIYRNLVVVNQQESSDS

For the compound `O=C(O)COCC(=O)NCCCCCCCCCCCCN=Cc1c[nH]c2cc(Cl)ccc12` [2j], the ring closure, isolated yield in data set [1] (19-membered ring) stood at 60%.

Take `O=C(O)COCC(=O)NCCCCCCCCN=Cc1c[nH]c2ccccc12` [2d]: in data set [1] (15-membered ring), the ring closure, isolated yield came out at 33%.

On to `O=C(O)CSCC(=O)NCCCCCCCCN=Cc1c[nH]c2cc(Cl)ccc12` [2n], for which the ring closure, isolated yield in data set [1] (15-membered ring) was found to be 39%. For `O=C(O)COCC(=O)NCCCCCCN=Cc1c[nH]c2ccccc12`, in data set [1] (13-membered ring), the ring closure, isolated yield was found to be 51%. With `O=C(O)COCC(=O)NCCCCCCCCN=Cc1c[nH]c2cc(Cl)ccc12` [2h], in data set [1] (15-membered ring), the ring closure, isolated yield stood at 25%. In the case of `O=C(O)COCC(=O)NCCCCCN=Cc1c[nH]c2ccccc12` [2b], the ring closure, isolated yield in data set [1] (12-membered ring) came to 35%. Turning to `O=C(O)COCC(=O)NCCCCCCCCCCN=Cc1c[nH]c2cc(Cl)ccc12` [2i], in data set [1] (17-membered ring), the ring closure, isolated yield stood at 51%.

In the case of `O=C(O)COCC(=O)NCCCCCCCCCCN=Cc1c[nH]c2ccccc12` [2e], the ring closure, isolated yield in data set [1] (17-membered ring) amounted to 31%.

For `O=C(O)CSCC(=O)NCCCCN=Cc1c[nH]c2cc(Cl)ccc12` [2k], in data set [1] (11-membered ring), the ring closure, isolated yield turned out to be 29%. As to `O=C(O)CSCC(=O)NCCCCCCN=Cc1c[nH]c2cc(Cl)ccc12` [2m], the ring closure, isolated yield in data set [1] (13-membered ring) was found to be 39%. For `O=C(O)CSCC(=O)NCCCCCCCCCCCCN=Cc1c[nH]c2cc(Cl)ccc12` [2p], in data set [1] (19-membered ring), the ring closure, isolated yield worked out at 52%. As for `CC(C)(C)NC(=O)C(c1c[nH]c2cc(Cl)ccc12)N1CCCCCCNC(=O)COCC1=O` (centres unmarked) [2g], the equilibrium dissociation constant (Kd) (in general, the constant that tells how readily two partners part at equilibrium) in data set [2] is 9 µM and 8.9 µM. As to `O=C(O)CSCC(=O)NCCCCCCCCCCN=Cc1c[nH]c2cc(Cl)ccc12` [2o], the ring closure, isolated yield in data set [1] (17-membered ring) came to 41%. In the case of `O=C(O)COCC(=O)NCCCCCCCCCCCCN=Cc1c[nH]c2ccccc12` [2f], the ring closure, isolated yield in data set [1] (19-membered ring) is 59%. As to `O=C(O)COCC(=O)NCCCCN=Cc1c[nH]c2ccccc12` [2a], in data set [1] (11-membered ring), the ring closure, isolated yield stood at 40%.

Consider `O=C(O)COCC(=O)NCCCCCCN=Cc1c[nH]c2cc(Cl)ccc12` [2g], for which the ring closure, isolated yield in data set [1] (13-membered ring) amounted to 35%.

In the case of `O=C(O)CSCC(=O)NCCCCCN=Cc1c[nH]c2cc(Cl)ccc12` [2l], the ring closure, isolated yield in data set [1] (12-membered ring) was 35%.
